Measured values from PMC10504874 (Journal of medicinal chemistry, 2021).
Like-named read-outs stand apart in the source and are kept apart here. Residues, ends and D or L forms follow the SMILES beside them. *: point of attachment. Cbz = O=C(OCc1ccccc1)*

Key:
cruzain [1] = target: T1, cruzain (Trypanosoma cruzi, UniProt P25779); experiment: Cruzain inhibition, fluorogenic substrate Cbz-Phe-Arg-AMC time courses; assay type: biochemical
cruzain [2] = target: T1, cruzain; experiment: biochemical; conditions: read-out: Residence time τ=1/kobs
[3] = system: T. cruzi-infected cardiomyoblasts; experiment: T. cruzi-infected C2C12 murine cardiomyoblast assay; assay type: cell-based; conditions: Trypanosoma cruzi, C2C12, in Mus musculus, 48 h, read-out: T. cruzi-infected cardiomyoblasts EC50, C2C12 cells, T. cruzi Ca-I/72, 2 days, 0.02–40 μM
[4] = system: C2C12 murine cardiomyoblast cells; experiment: Toxicity against host cardiomyoblasts in the T. cruzi infection assay; assay type: cell-based; conditions: at up to 40 μM
[5] = Detection of aldehyde content using phenylhydrazine; assay type: physicochemical; conditions: 0.2 mM compound, 1 mM phenylhydrazine; for Reaction with excess phenylhydrazine (in words): 2 h; for kobs of phenylhydrazone formation: Abs 282 nm, pH 7.5 buffer lacking DTT
[6] = Pharmacokinetic evaluation in mice by intravenous administration; assay type: in vivo; conditions: data not shown
[7] = Stability of prodrugs in buffer without esterase; assay type: physicochemical; conditions: buffer pH 7.5, over 3 h
human cathepsin L = human cathepsin L (Homo sapiens, UniProt P07711); experiment: Human cathepsin L inhibition; assay type: biochemical
T. b. brucei BSFs [8] = experiment: Axenic cultures of T. b. brucei bloodstream forms, growth inhibition; conditions: Trypanosoma brucei, read-out: T. b. brucei BSFs EC50
T. b. brucei BSFs [9] = conditions: read-out: EC50 in T. b. brucei BSFs; cited from earlier work

T1 sequence (P25779 123-337 limits assumed): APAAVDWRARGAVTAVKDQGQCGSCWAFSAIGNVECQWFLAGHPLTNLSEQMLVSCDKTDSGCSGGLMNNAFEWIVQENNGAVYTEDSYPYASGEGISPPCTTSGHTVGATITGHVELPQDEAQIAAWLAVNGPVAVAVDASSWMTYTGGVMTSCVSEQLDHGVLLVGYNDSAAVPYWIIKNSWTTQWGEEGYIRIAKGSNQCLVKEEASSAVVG
human cathepsin L, sequence (P07711 114-333): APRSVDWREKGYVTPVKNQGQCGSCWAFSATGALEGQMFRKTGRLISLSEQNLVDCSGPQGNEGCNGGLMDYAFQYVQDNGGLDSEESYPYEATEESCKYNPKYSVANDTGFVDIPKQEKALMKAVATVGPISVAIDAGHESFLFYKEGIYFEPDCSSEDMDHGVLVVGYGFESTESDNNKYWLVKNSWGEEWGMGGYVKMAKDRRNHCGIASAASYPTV

SMILES: CN1CCN(C(=O)N[C@@H](Cc2ccccc2)C(=O)N[C@@H]2Cc3ccccc3C[C@H]2O)CC1 (mixture of isomers) [Compound 3, N-((S)-1-(((2S,3S)-3-hydroxy-1,2,3,4-tetrahydronaphthalen-2-yl)amino)-1-oxo-3-phenylpropan-2-yl)-4-methylpiperazine-1-carboxamide and N-((S)-1-(((2R,3R)-3-hydroxy-1,2,3,4-tetrahydronaphthalen-2-yl)amino)-1-oxo-3-phenylpropan-2-yl)-4-methylpiperazine-1-carboxamide]
- Cruzain inhibition (in words) (cruzain [1]; at ≤100 μM): did not inhibit cruzain

SMILES: O=C[C@H](Cc1ccccc1)NC(=O)[C@H](Cc1ccccc1)NC(=O)OCc1ccccc1 [Compound 1, Cbz-Phe-Phe-H] (Cbz-Phe-Phe-aldehyde)
- k4, rate constant for conversion of EI* back to EI (cruzain [1]; from replot of kobs vs [I], eq 3): (7.6±0.6)×10^–4 s^–1
- residence time (cruzain [2]): 52 min
- EC50 [3]: 400 nM
- Toxicity against the host cardiomyoblasts [4]: significant cytotoxicity

SMILES: O=C(N[C@@H](Cc1ccccc1)C(=O)N[C@H]1Cc2ccccc2OC1O)OCc1ccccc1 (stereo partly drawn) [Compound 2, Cbz-Phe-o-Tyr-H]
- Ratio Ki*(SMAI)/Ki*(free aldehyde counterpart) (cruzain [1]; Ki*(12)/Ki*(11), Ki*(2)/Ki*(1)): 110
- residence time (cruzain [2]): 2.5 to 5.5 min

SMILES: COc1ccccc1C[C@@H](C=O)NC(=O)[C@H](Cc1ccccc1)NCC(=O)OCc1ccccc1 [Compound 5]
- Fold less active than aldehyde 1 versus cruzain (cruzain [1]): 50 fold

SMILES: COc1ccc2c(c1)C[C@H](NC(=O)[C@H](Cc1ccccc1)NC(=O)OCc1ccccc1)C(O)O2 (some centres unmarked) [Compound 6]
- Fold lower activity than 7 (cruzain [1]): over 3 fold
- Fold more weakly binding than un-substituted SMAI 2 (cruzain [1]): 7 fold
- residence time (cruzain [2]): 2.5 to 5.5 min

SMILES: Cc1ccc2c(c1)C[C@H](NC(=O)[C@H](Cc1ccccc1)NC(=O)OCc1ccccc1)C(O)O2 (stereo partly drawn) [Compound 7, Benzyl ((2S)-1-(((3S)-2-hydroxy-6-methylchroman-3-yl)amino)-1-oxo-3-phenylpropan-2-yl)carbamate]
- residence time (cruzain [2]): 2.5 to 5.5 min

SMILES: O=C(N[C@@H](Cc1ccccc1)C(=O)N[C@H]1Cc2cc(Cl)ccc2OC1O)OCc1ccccc1 (some centres unmarked) [Compound 8]
- residence time (cruzain [2]): 2.5 to 5.5 min

SMILES: O=C(N[C@@H](Cc1ccccc1)C(=O)N[C@H]1Cc2cc(F)ccc2OC1O)OCc1ccccc1 (some centres unmarked) [Compound 9]
- residence time (cruzain [2]): 2.5 to 5.5 min

SMILES: COC(=O)c1ccc2c(c1)C[C@H](NC(=O)[C@H](Cc1ccccc1)NC(=O)OCc1ccccc1)C(O)O2 (some centres unmarked) [Compound 10]
- Fold increase in potency versus 2 (cruzain [1]): 3 fold
- residence time (cruzain [2]): 2.5 to 5.5 min

SMILES: CN1CCN(C(=O)N[C@@H](Cc2ccccc2)C(=O)N[C@H](C=O)CCc2ccccc2)CC1 [Compound 11, 4-Methyl-N-((S)-1-oxo-1-(((S)-1-oxo-4-phenylbutan-2-yl)amino)-3-phenylpropan-2-yl)piperazine-1-carboxamide]
- Reaction with excess phenylhydrazine (in words) [5]: completely converted to phenylhydrazone
- kobs of phenylhydrazone formation [5]: (2.61±0.05)×10^–4 s^–1

SMILES: CN1CCN(C(=O)N[C@@H](Cc2ccccc2)C(=O)N[C@H]2Cc3ccccc3OC2O)CC1 (some centres unmarked) [Compound 12]
- residence time (cruzain [2]): 26 min
- Reaction with excess phenylhydrazine (in words) [5]: remained intact after 2 h
- kobs of phenylhydrazone formation [5]: negligible
- Half-life in mice (in words) [6]: short half-life

SMILES: CC(=O)OC1Oc2ccccc2C[C@@H]1NC(=O)[C@H](Cc1ccccc1)NC(=O)N1CCN(C)CC1 (stereo partly drawn) [Compound 13, (3S)-3-((S)-2-(4-methylpiperazine-1-carboxamido)-3-phenylpropanamido)chroman-2-yl acetate]
- Degradation in buffer without esterase [7]: about 10%

SMILES: CCOC1Oc2ccccc2C[C@@H]1NC(=O)[C@H](Cc1ccccc1)NC(=O)N1CCN(C)CC1 (stereo partly drawn) [Compound 16, N-((2S)-1-(((3S)-2-ethoxychroman-3-yl)amino)-1-oxo-3-phenylpropan-2-yl)-4-methylpiperazine-1-carboxamide]
- Cruzain inhibition by prodrugs (in words) (cruzain [1]): did not inhibit cruzain

SMILES: CC(C)OC1Oc2ccccc2C[C@@H]1NC(=O)[C@H](Cc1ccccc1)NC(=O)N1CCN(C)CC1 (some centres unmarked) [Compound 17]
- Cruzain inhibition by prodrugs (in words) (cruzain [1]): did not inhibit cruzain

SMILES: CC(C)[C@H](NC(=O)OCc1ccccc1)C(=O)N[C@@H](CC1CCCCC1)C(=O)N[C@H](C=O)Cc1ccc[nH]c1=O [Compound 18]
- Inhibition of human cathepsin L (in words) (human cathepsin L): inhibited human cathepsin L

SMILES: CN1CCN(C(=O)N[C@@H](Cc2ccccc2)C(=O)N[C@H](/C=C/S(=O)(=O)c2ccccc2)CCc2ccccc2)CC1 [K777, reference compound]
- Toxicity against the host cardiomyoblasts [4]: significant cytotoxicity
- EC50 (T. b. brucei BSFs [8]): 90 ± 60 nM

SMILES: N=C(N)c1ccc(/N=N/Nc2ccc(C(=N)N)cc2)cc1 [diminazene]
- EC50 (T. b. brucei BSFs [9]): 990 nM
